Test results published in publication PMC11728000, “Antitumor Activity and Multi-Target Mechanism of Phenolic Schiff Bases Bearing Methanesulfonamide Fragments: Cell Cycle Analysis and a Molecular Modeling Study” (International Journal of Molecular Sciences, 2024).
Where two headings read alike, the source gives them in different places.

Key:
SF-295 = test: NCI anticancer screening (SRB), CNS Cancer subpanel; format: cell-based, human; settings: for GI%: 10.0 µM in one dose
[1] = system: Leukemia subpanel tumor cell lines; test: NCI anticancer screening, subpanel summary; format: cell-based; settings: Leukemia, mean over subpanel cell lines
NCI-H322M = test: NCI anticancer screening (SRB), Non-Small Cell Lung Cancer subpanel; format: cell-based, human
[2] = system: Breast Cancer subpanel tumor cell lines; test: NCI anticancer screening, subpanel summary; format: cell-based; settings: Breast Cancer, mean over subpanel cell lines
[3] = system: NSC Lung Cancer subpanel tumor cell lines; test: NCI anticancer screening, subpanel summary; format: cell-based; settings: NSC Lung Cancer, mean over subpanel cell lines
[4] = system: Ovarian Cancer subpanel tumor cell lines; test: NCI anticancer screening, subpanel summary; format: cell-based; settings: Ovarian Cancer, mean over subpanel cell lines
[5] = system: Renal Cancer subpanel tumor cell lines; test: NCI anticancer screening, subpanel summary; format: cell-based; settings: mean over subpanel cell lines
HT29 = test: NCI anticancer screening (SRB), Colon Cancer subpanel; format: cell-based, human
[6] = system: Melanoma subpanel tumor cell lines; test: NCI anticancer screening, subpanel summary; format: cell-based; settings: mean over subpanel cell lines
[7] = system: 59 human cancer cell lines; test: NCI anticancer screening, full panel summary
SNB-75 = test: NCI anticancer screening (SRB), CNS Cancer subpanel; format: cell-based, human
NCI-H522 = test: NCI anticancer screening (SRB), Non-Small Cell Lung Cancer subpanel; format: cell-based, human
RPMI-8226 = test: NCI anticancer screening (SRB), Leukemia subpanel; format: cell-based, human
[8] = system: Colon Cancer subpanel tumor cell lines; test: NCI anticancer screening, subpanel summary; format: cell-based; settings: mean over subpanel cell lines
MCF-7 cells [9] = test: Annexin V-FITC/PI apoptosis assay; format: cell-based, human; settings: 24 h
[10] = system: Prostate Cancer subpanel tumor cell lines; test: NCI anticancer screening, subpanel summary; format: cell-based; settings: mean over subpanel cell lines
[11] = system: CNS Cancer subpanel tumor cell lines; test: NCI anticancer screening, subpanel summary; format: cell-based; settings: mean over subpanel cell lines
COLO 205 = test: NCI anticancer screening (SRB), Colon Cancer subpanel; format: cell-based, human
UACC-257 = test: NCI anticancer screening (SRB), Melanoma subpanel; format: cell-based, human
MCF-7 cells [12] = test: Cell cycle analysis (PI flow cytometry); format: cell-based, human; settings: 10 μM, 24 h
Experimental: Apoptosis is the primary mechanism by which potent chemotherapeutic agents destroy cancer cells. […] Flow cytometry measured cell growth in the G0-G1, S, and G2/M cell cycle phases.
Using the MCF-7 cell line, the cell cycle analysis was carried out like our previous investigation. A FACSCalibur flow cytometer was used to analyze the cells after they had been stained with DNA fluorochrome PI (Supplementary Materials). […]
photomultiplier voltage and for compensation setting adjustment to eliminate spectral overlap between the FL1 and the FL2 signals.
6. Cell cycle analysis
Breast carcinoma (MCF-7) cell was seeded at 2 × 10^5 cells/well density and incubated for 24 h in six-well plates. Foetal bovine serum (10%) was added, and the cells were incubated at 37 °C in an atmosphere of 5% CO2. The medium was replaced with 1% (v/v) DMSO containing 10.0 μM of […]
with 70% ethanol, rinsed with phosphate-buffered saline, and then stained with the DNA fluorochrome propidium iodide (PI) for 15 min at 37 °C. Then, samples were analyzed by flow cytometry using a FACSCalibur (Becton Dickinson). The cell cycle distributions were calculated using CellQuest software (Becton Dickinson). […]

[13] = Homo sapiens, read-out: LC50, subpanel average
[14] = Homo sapiens, five concentrations

Molecule `CS(=O)(=O)Nc1ccc(C(=O)NN=Cc2ccccc2O)cc1` [Compound 7] has a GI% (SF-295) of 35%.
With `CCN(CC)c1ccc(C=NNC(=O)c2ccc(NS(C)(=O)=O)cc2)c(O)c1` [Compound 8] the GI50 ([1]; Homo sapiens) was 700 nM, the CC50 [1, 13] was greater than 100000 nM and the “TGI, subpanel average” value [1] was 79880 nM. The GI% (NCI-H322M; 10.0 µM in one dose) was 75%, the GI50 (NCI-H322M; [14]) was 258 nM and the “TGI, subpanel average” value [2] was 15220 nM. The GI50 ([2]; Homo sapiens) was 599 nM, the CC50 [2, 13] was 99800 nM and the GI50 ([3]; Homo sapiens) was 622 nM. The CC50 [3, 13] was 94900 nM, the “TGI, subpanel average” value [3] was 22080 nM and the GI50 ([4]; Homo sapiens) was 1030 nM. For the same molecule, the CC50 [4, 13] was 94900 nM, the GI50 [4] was 1030 nM and the “TGI, subpanel average” value [4] was 52900 nM. The GI50 ([5]; Homo sapiens) was 826 nM, the CC50 [5, 13] was 80600 nM and the “TGI, subpanel average” value [5] was 23370 nM. For the same molecule, the GI% (HT29; 10.0 µM in one dose) was 73%, the GI50 (HT29; Homo sapiens, HT-29, five concentrations) was 495 nM and the GI% (SF-295) was 90%. The GI50 (SF-295; [14]) was 517 nM, the GI50 ([6]; Homo sapiens) was 563 nM and the CC50 [6, 13] was 93600 nM. For the same molecule, the “TGI, subpanel average” value [6] was 21640 nM, the GI50 ([7]; Homo sapiens, read-out: GI50 MG-MID) was 501 nM and the GI50 ([7]; Homo sapiens, read-out: GI50 range over the cell lines) was 141 to 2720 nM. For the same molecule, the CC50 ([7]; Homo sapiens, read-out: LC50 MG-MID) was greater than 100000 nM, the “TGI MG-MID” value ([7]; full panel mean-graph midpoint) was 46800 nM and the “PCE (positive cytotoxic effect)” value ([7]; ratio of cell lines with growth inhibition > 10% to total cell lines, 10 µM single dose) was 59/59. For the same molecule, the GI% (SNB-75; 10.0 µM in one dose) was 52%, the GI50 (SNB-75; [14]) was 519 nM and the GI% (NCI-H522; 10.0 µM in one dose) was 88%. For the same molecule, the GI50 (NCI-H522; [14]) was 360 nM, the GI% (RPMI-8226; 10.0 µM in one dose) was 84% and the GI50 (RPMI-8226; Homo sapiens, PRMI-8226, five concentrations) was 2720 nM. The GI50 ([8]; Homo sapiens) was 400 nM, the LC50 (NCI-60 lethal concentration, subpanel average) ([8]; Homo sapiens) was 80100 nM and the “TGI, subpanel average” value [8] was 30530 nM. For the same molecule, the Necrosis (MCF-7 cells [9]) was 6.08%, the “Total Apoptosis” value (MCF-7 cells [9]; annexin V-FITC/PI) was 38.16% and the “Early Apoptosis” value (MCF-7 cells [9]; lower-right quadrant) was 22.49%. For the same molecule, the “Late Apoptosis” value (MCF-7 cells [9]; upper-right quadrant) was 9.59%, the GI50 ([10]; Homo sapiens) was 527 nM and the CC50 [10, 13] was 98000 nM. For the same molecule, the “TGI, subpanel average” value [10] was 60800 nM, the GI50 ([11]; Homo sapiens) was 451 nM and the CC50 [11, 13] was 86600 nM. The “TGI, subpanel average” value [11] was 14140 nM, the GI% (COLO 205; 10.0 µM in one dose) was 94% and the GI50 (COLO 205; [14]) was 349 nM. For the same molecule, the GI% (UACC-257; 10.0 µM in one dose) was greater than 100%, the GI50 (UACC-257; [14]) was 463 nM and the “%G0–G1” value (MCF-7 cells [12]) was 51.94%. For the same molecule, the “%G2-M” value (MCF-7 cells [12]) was 14.64%, the “%S” value (MCF-7 cells [12]) was 33.42% and the “Comment (cell cycle arrest phase)” value (MCF-7 cells [12]) was “Growth arrest@ S”.
